Here are results for 15 compounds from patent US10266497B2 (ABIDE THERAPEUTICS, INC., priority 2017, dated 2019).

pIC50: −log10 of the molar value.

By pIC50 is commonly meant the negative decadic logarithm of the IC50, by convention in mol/L. A high value points to a low IC50.

For assay [1], the target named is T1, FAAH (Homo sapiens, UniProt O00519).
T1 sequence (O00519 1-579): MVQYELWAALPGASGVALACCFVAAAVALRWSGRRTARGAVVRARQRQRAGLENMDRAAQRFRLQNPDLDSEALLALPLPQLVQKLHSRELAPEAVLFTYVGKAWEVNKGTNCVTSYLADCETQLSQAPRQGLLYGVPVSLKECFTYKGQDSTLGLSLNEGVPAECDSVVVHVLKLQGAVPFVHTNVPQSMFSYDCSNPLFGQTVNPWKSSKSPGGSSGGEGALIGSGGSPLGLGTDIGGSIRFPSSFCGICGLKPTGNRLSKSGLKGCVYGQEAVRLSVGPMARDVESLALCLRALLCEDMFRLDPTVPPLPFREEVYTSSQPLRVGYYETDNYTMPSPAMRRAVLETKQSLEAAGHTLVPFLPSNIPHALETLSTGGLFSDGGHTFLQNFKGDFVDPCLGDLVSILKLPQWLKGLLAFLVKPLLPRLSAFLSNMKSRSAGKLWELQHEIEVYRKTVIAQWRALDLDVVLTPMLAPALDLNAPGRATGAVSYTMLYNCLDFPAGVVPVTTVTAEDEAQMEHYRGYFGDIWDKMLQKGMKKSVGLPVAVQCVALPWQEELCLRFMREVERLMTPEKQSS
Put plainly: In vitro competitive activity-based protein profiling, FAAH, human. Particulars: for inhibition at 1 µM: read-out: FAAH % inh. 1 μM (human).

Assay [2] has as its target T2, FAAH (Mus musculus, UniProt O08914).
T2 sequence (O08914 1-579): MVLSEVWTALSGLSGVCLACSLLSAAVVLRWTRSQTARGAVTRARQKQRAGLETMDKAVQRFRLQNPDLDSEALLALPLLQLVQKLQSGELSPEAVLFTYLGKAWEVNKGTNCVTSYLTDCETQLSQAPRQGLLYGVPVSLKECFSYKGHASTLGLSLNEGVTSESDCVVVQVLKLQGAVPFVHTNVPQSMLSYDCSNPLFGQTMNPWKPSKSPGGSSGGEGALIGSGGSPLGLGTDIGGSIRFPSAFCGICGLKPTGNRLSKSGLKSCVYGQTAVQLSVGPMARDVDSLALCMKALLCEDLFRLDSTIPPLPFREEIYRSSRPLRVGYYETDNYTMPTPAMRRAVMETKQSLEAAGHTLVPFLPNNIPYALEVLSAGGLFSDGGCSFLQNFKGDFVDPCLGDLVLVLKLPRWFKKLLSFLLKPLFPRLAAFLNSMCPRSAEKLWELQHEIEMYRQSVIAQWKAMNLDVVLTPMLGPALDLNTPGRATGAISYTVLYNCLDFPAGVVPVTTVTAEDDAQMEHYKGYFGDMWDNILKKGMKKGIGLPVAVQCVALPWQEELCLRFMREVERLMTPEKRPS
Description: In vitro competitive activity-based protein profiling, FAAH, mouse. The following applies: read-out: FAAH % inh. 1 μM (mouse).

The target of assay [3] is T3, MAGL (Mus musculus, UniProt O35678).
T3 sequence (O35678 1-303): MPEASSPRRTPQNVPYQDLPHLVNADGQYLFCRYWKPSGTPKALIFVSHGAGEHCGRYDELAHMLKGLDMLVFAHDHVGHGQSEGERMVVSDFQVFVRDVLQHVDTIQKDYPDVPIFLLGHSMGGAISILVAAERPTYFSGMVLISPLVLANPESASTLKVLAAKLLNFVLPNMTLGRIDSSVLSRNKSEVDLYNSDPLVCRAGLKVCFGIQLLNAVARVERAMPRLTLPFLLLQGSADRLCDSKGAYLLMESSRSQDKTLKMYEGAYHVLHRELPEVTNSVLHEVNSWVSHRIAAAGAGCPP
Put plainly: In vitro competitive activity-based protein profiling, MAGL, mouse. Particulars: read-out: MAGL % inh. 1 μM (mouse).

Assay [4] has as its target T4, MAGL (Homo sapiens, UniProt Q99685).
T4 sequence (Q99685 1-303): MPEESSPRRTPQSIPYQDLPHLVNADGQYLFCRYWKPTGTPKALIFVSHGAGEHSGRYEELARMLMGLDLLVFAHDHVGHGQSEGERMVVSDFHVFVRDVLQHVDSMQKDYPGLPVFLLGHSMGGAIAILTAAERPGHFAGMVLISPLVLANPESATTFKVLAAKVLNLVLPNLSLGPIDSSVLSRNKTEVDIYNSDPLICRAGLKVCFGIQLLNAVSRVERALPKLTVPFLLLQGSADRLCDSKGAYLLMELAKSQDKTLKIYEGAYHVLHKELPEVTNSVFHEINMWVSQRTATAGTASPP
Put plainly: In vitro competitive activity-based protein profiling, MAGL, human. The following applies: for inhibition at 1 µM: read-out: MAGL % inh. 1 μM (human).

As for `O=C(O)c1ccn(C(=O)N2CCN(Cc3cc(F)cc(Oc4ccc(Cl)cc4)c3)CC2)n1` [Example 161, 1-(4-(3-(4-chlorophenoxy)-5-fluorobenzyl)pipera-zine-1-carbonyl)-1H-pyrazole-3-carboxylic acid], the inhibition at 1 µM at FAAH [1], at FAAH [2], at MAGL [3] and on MAGL [4] was more than 75% in each case.

`CN(Cc1cc(Cl)ccc1C(F)(F)F)C1CCN(C(=O)n2ccc(C(=O)O)n2)CC1` [Example 81, 1-(4-((5-chloro-2-(trifluoromethyl)benzyl)(methyl)amino)piperidine-1-carbonyl)-1H-pyrazole-3-carboxylic acid] had a pIC50 at FAAH [1] of 6.00 to 7.00. Also, the inhibition at 1 µM is 50 to 75% at FAAH [1], 0 to 25% at FAAH [2], more than 75% at MAGL [3] and more than 75% at MAGL [4].

In the case of `O=C(O)c1nn(C(=O)N2CC3CN(Cc4cccc(Oc5ccc(Cl)cc5)c4)CC3C2)cc1C(F)(F)F` (centres unmarked) [Example 147, 1-(5-(3-(4-chlorophenoxy)benzyl)octahydro-pyrrolo[3,4-c]pyrrole-2-carbonyl)-4-(trifluoromethyl)-1H-pyrazole-3-carboxylic acid], the inhibition at 1 µM on FAAH [1] is more than 75%; on FAAH [2] it was more than 75%; on MAGL [3] it was 0 to 25%; at MAGL [4], more than 75%.

As for `NC(=O)c1ccn(C(=O)N2CCC3(CCN(Cc4ccc(N5CCOCC5)cc4Cl)C3)CC2)n1` [Example 197, 1-(2-(2-chloro-4-morpholinobenzyl)-2,8-diazaspiro[4.5]decane-8-carbonyl)-1H-pyrazole-3-carboxamide], the pIC50 on FAAH [1] was 6.00 to 7.00. The inhibition at 1 µM on FAAH [1], at FAAH [2], at MAGL [3] and on MAGL [4] was more than 75% each time.

For the compound `O=C(O)c1ccn(C(=O)N2CCC3(CCCN3C(=O)c3cc4ccc(C(F)(F)F)cc4s3)CC2)n1` [Example 56, 1-(1-(6-(trifluoromethyl)benzo[b]thiophene-2-carbonyl)-1,8-diazaspiro[4.5]decane-8-carbonyl)-1H-pyrazole-3-carboxylic acid], the inhibition at 1 µM at FAAH [1] was 0 to 25%; on FAAH [2] it was 50 to 75%; on MAGL [3], more than 75%; at MAGL [4] it was more than 75%.

Regarding `NC(=O)c1ccn(C(=O)N2CCC3(CCN(Cc4ccc(N5CCCC5)cc4C(F)(F)F)C3)CC2)n1` [Example 195, 1-(2-(4-(pyrrolidin-1-yl)-2-(trifluoromethyl)benzyl)-2,8-diazaspiro[4.5]decane-8-carbonyl)-1H-pyrazole-3-carboxamide], the inhibition at 1 µM is more than 75% at FAAH [1], more than 75% on FAAH [2], 0 to 25% on MAGL [3] and more than 75% at MAGL [4].

Consider `O=C(O)c1ccn(C(=O)N2CC3CN(Cc4cccc(C(F)(F)F)c4)CC3C2)n1` (centres unmarked) [Example 122, 1-(5-(3-(trifluoromethyl)benzyl)octahydro-pyrrolo[3,4-c]pyrrole-2-carbonyl)-1H-pyrazole-3-carboxylic acid], for which the inhibition at 1 µM at FAAH [1] lay within 0 to 25%; at FAAH [2] it was 50 to 75%; on MAGL [3], 25 to 50%; on MAGL [4], 50 to 75%.

Consider `NC(=O)c1ccn(C(=O)N2CCC3(CCN(Cc4cc(Cl)ccc4C(F)(F)F)C3)CC2)n1` [Example 99, 1-(2-(5-chloro-2-(trifluoromethyl)benzyl)-2,8-diazaspiro[4.5]decane-8-carbonyl)-1H-pyrazole-3-carboxamide], for which the inhibition at 1 µM on FAAH [1], at FAAH [2], at MAGL [3] and at MAGL [4] was more than 75% each time.

`O=C(O)c1ccn(C(=O)N2CC3CN(Cc4cccc(OC(F)(F)F)c4)CC3C2)n1` (centres unmarked) [Example 117, 1-(5-(3-(trifluoromethoxy)benzyl)octahydro-pyrrolo[3,4-c]pyrrole-2-carbonyl)-1H-pyrazole-3-carboxylic acid]: the inhibition at 1 µM fell in the range of 0 to 25% at FAAH [1], 50 to 75% on FAAH [2], 50 to 75% on MAGL [3] and 50 to 75% at MAGL [4].

Take `Cc1cc(CO[C@H]2C[C@@H]3CN(C(=O)n4ccc(C(=O)O)n4)C[C@@H]3C2)ccc1C(F)(F)F` [Example 172, 1-(trans-5-((3-methyl-4-(trifluoromethyl)benzyl)oxy)octa-hydrocyclopenta[c]pyrrole-2-carbonyl)-1H-pyrazole-3-carboxylic acid]: the inhibition at 1 µM is more than 75% on FAAH [1], 50 to 75% at FAAH [2], more than 75% on MAGL [3] and more than 75% at MAGL [4].

With `O=C(O)c1ccn(C(=O)N2CCN(Cc3cccc(-c4ncccn4)c3)CC2)n1` [Example 64, 1-(4-(3-(pyrimidin-2-yl)benzyl)piperazine-1-carbonyl)-1H-pyrazole-3-carboxylic acid], the inhibition at 1 µM on FAAH [1] is 0 to 25%; at FAAH [2] it was 0 to 25%; on MAGL [3], more than 75%; at MAGL [4], more than 75%.

For `O=C(O)c1ccn(C(=O)N2CCC3(CCN(Cc4cc(Cl)cc(C(F)(F)F)c4)C3)CC2)n1` [Example 72, 1-(2-(3-chloro-5-(trifluoromethyl)benzyl)-2,8-diazaspiro[4.5]decane-8-carbonyl)-1H-pyrazole-3-carboxylic acid], the pIC50 on FAAH [1] was 5.00 to 6.00. For the same compound, the inhibition at 1 µM on FAAH [1] was 0 to 25%; at FAAH [2] it was 0 to 25%; at MAGL [3], more than 75%; on MAGL [4], more than 75%.

On to `O=C(O)c1ccn(C(=O)N2CCC3(CCN(Cc4cccc(C(F)(F)F)c4)C3)CC2)n1` [Example 192, 1-(2-(3-(trifluoromethyl)benzyl)-2,8-diazaspiro[4.5]decane-8-carbonyl)-1H-pyrazole-3-carboxylic acid], for which the inhibition at 1 µM was 0 to 25% at FAAH [1], 0 to 25% on FAAH [2], 25 to 50% on MAGL [3] and more than 75% at MAGL [4].

As for `C#Cc1ccc(CN2CCN(C(=O)n3ccc(C(=O)O)n3)CC2)cc1` [Example 50, 1-(4-(4-ethynylbenzyl)piper-azine-1-carbonyl)-1H-pyrazole-3-carboxylic acid], the inhibition at 10 µM on FAAH [1] (read-out: FAAH % inh. (human) at 10 uM) and at MAGL [4] (read-out: MAGL % inh. (human) at 10 uM) was more than 75% throughout. The inhibition at 1 µM at FAAH [2] and at MAGL [3] was 0 to 25% each time.

With `Cc1cn(C(=O)N2CCC3(CC2)CN(Cc2cc(Cl)ccc2C(F)(F)F)C3)nc1C(=O)O` [Example 131, 1-(2-(5-chloro-2-(trifluoromethyl)benzyl)-2,7-diazaspiro[3.5]non-ane-7-carbonyl)-4-methyl-1H-pyrazole-3-carboxylic acid], the pIC50 on FAAH [1] is 5.00 to 6.00; on MAGL [4], 6.00 to 7.00. Also, the inhibition at 1 µM on FAAH [1] was 0 to 25%; on FAAH [2], 0 to 25%; on MAGL [3] it was more than 75%; on MAGL [4], more than 75%.
